{
  "source": "patent US20240165064A1",
  "about": "“LONG-LASTING RESORBABLE SUBCUTANEOUS IMPLANT WITH PROLONGED RELEASE OF PRE-CONCENTRATED PHARMACOLOGICALLY ACTIVE SUBSTANCE IN POLYMER FOR THE TREATMENT OF HYPOTHYROIDISM, AND METHOD” (priority 2021, published 2024)",
  "origin": "cited, not measured here",
  "tested_on": "patients with primary hypothyroidism",
  "key": {"[1]": {"settings": "T3 group compared to T4 group, 6 weeks"}},
  "data": [
    {"smiles": "N[C@@H](Cc1cc(I)c(Oc2ccc(O)c(I)c2)c(I)c1)C(=O)O", "note": "[T3, triiodothyronine]", "values": [
      {"measurement": "weight lost on average more than the group receiving T4 treatment", "setting": "14 patients, three times a day for 6 weeks, T3 group compared to T4 group", "result": "1.8 ± 1.9", "unit": "kg"},
      {"measurement": "decrease in low density cholesterol (non-HDL)", "setting": "[1]", "result": "13.3±12.1", "unit": "%"},
      {"measurement": "decrease in total cholesterol", "setting": "[1]", "result": "10.9±10.0", "unit": "%"},
      {"measurement": "reduction in apolipoprotein B", "setting": "[1]", "result": "18.3±28.6", "unit": "%"},
      {"measurement": "side effects", "setting": "T3 treatment compared to T4 treatment, 6 weeks", "result": "without presenting significant side effects"}
    ]}
  ]
}
